Reference: patent US9464326B2, “Total and phosphorylated IL-1 receptor-associated kinase-1 and IL-1 receptor-associated kinase-4 as a biomarker for cancer progression and chemotherapy resistance” (University of Maryland, Baltimore, priority 2012, dated 2016)

Key:
patient T-ALL samples = assay: SA-β-gal activity in patient T-ALL samples from treated NSG mice; type: in vivo; settings: p<0.05, FIG. 15C
Description: Analysis of senescence-associated β-galactosidase (SA-β-gal) activity was performed using the 96-Well Cellular Senescence Assay Kit (Cell Biolabs, San Diego, Calif.) as per the manufacturer's protocol. In brief, cells were washed with PBS, lysed with cell lysis buffer, and incubated at 37° C. with SA-β-gal substrate for 1 hour. A quantitative Cellular Senescence Assay Kit (SA-β-gal, Fluorometric) (Cell Biolabs, San Diego, Calif.) was used for more quantitative measurement of SA-β-gal activity by flow cytometry. Briefly, control and treated CCRF-CEM cells were incubated with 1× cell pretreatment solution in culture medium for 2 hrs, and the fluorogenic substrate was then directly added into the culture. After 4 hrs, the cells were washed and analyzed by flow cytometry.
CCRF-CEM (2×10^6) cells were injected intravenously (i.v.) into female NOD.Cg-Prkdc^scid Il2rg^tm1WJl/SzJ IL2RG (NSG) mice (Jackson Laboratories, Bar Harbor, Me.). […] In some experiments mice were injected i.v. with TLR1-TLR2 ligand (2.5 μg) two days after injecting cells. […] The numbers of T-ALL cells in the bone marrow, spleen, liver, and in circulation were determined by staining cells with anti-human CD7 and/or CD5. […]

C32 melanoma cells = assay: Vinblastine-induced apoptosis in C32 (flow cytometry); type: cell-based, human; settings: vinblastine 100 nM with TLR1-TLR2 ligand 2.5 μg/ml, 48 hours, FIG. 20B
Description: FIG. 20. Role of TLR-induced cytokines and NF-kB on cell survival. (A) A375 melanoma cells were cultured in a 48-well plates in the presence or absence of NF-kB inhibitor NF-kB inhibitor SN50 (100 nM; Anaspec) with or without vinblastine (100 nM) or Doxorubicin (0.25 μg/ml). The percentage of apoptotic cells was measured by staining cells with Annexin and PI 48 hours later and analyzed by flow cytometry. (B) C32 melanoma cells were cultured in the presence of vinblastine (100 nM) and in the […] of TLR1-TLR2 ligand (2.5 μg/ml) or the presence of supernatant from TLR1-TLR2-stimulated A375 cells. After 48 hours, apoptosis was measured by flow cytometry. (C) A375 melanoma cells were cultured in the presence or absence of vinblastine (100 nM) and IL-1 (50 ng/ml; BioLegend), IL-18 (100 ng/ml; Medical and Biological Lab) or CXCL1 (50 ng/ml; R&D Systems). Apoptosis was measured 48 hours later by flow cytometry.
Alternatively, cytokines/chemokines produced in response to TLR-IRAK signaling might also contribute to the chemoprotective effects. Supernatant from TLR-1-TLR-2 stimulated or unstimulated A375 melanoma cells was added to the C32 melanoma cells in the presence or absence of vinblastine. Another group of cells were treated with TLR1-TLR2 ligand and apoptosis was examined by flow cytometry. […]

Molecule	SA-β-gal activity (patient T-ALL samples)	vinblastine-induced apoptosis (C32 melanoma cells)
O=C(Nc1nc2ccccc2n1CCN1CCOCC1)c1cccc([N+](=O)[O-])c1 [IRAK-1,-4 inhibitor]	increased SA-β-gal activity	
tripalmitoyl-S-(bis(palmitoyloxy)propyl)-Cys-Ser-(Lys)3-Lys [Pam3Cysk4]		little effect
